Measured values reported in patent US20260042762A1 (Kymera Therapeutics, Inc., priority 2018, published 2026).

Target: T1, MerTK (Homo sapiens, UniProt Q12866)
T1 construct: endogenous in cells; host or cells: Jurkat cells
T1 sequence (Q12866 21-999): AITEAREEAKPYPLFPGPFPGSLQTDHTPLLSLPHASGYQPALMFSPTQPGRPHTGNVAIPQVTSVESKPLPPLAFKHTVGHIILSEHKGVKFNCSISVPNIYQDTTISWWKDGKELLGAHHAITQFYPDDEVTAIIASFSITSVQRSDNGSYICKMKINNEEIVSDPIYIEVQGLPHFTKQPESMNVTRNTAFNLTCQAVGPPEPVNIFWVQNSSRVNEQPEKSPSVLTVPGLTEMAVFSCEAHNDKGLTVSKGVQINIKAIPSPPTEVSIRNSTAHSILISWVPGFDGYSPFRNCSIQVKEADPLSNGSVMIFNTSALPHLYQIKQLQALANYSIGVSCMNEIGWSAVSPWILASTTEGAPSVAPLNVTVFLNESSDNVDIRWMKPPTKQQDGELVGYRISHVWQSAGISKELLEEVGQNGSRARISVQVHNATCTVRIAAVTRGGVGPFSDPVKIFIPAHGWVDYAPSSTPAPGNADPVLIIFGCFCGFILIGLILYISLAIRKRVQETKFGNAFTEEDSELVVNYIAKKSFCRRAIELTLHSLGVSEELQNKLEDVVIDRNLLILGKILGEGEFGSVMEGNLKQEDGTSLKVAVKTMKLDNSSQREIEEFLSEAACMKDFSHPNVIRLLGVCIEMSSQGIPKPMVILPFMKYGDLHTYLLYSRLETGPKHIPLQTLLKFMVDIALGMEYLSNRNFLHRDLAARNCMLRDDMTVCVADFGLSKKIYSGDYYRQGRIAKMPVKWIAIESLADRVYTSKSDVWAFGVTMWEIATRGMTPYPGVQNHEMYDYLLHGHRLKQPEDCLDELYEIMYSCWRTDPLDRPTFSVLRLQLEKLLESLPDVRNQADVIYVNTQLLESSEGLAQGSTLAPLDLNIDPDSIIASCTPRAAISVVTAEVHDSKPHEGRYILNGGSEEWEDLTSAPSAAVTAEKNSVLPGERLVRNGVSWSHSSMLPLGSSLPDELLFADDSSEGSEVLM
Assay: MerTk degradation in Jurkat cells (Western blot)
Type: cell-based
Conditions: Jurkat, 4 h, 0.001-1 μM, 4 hour-incubation at 37° C., read-out: Jurkat Max % MerTK Degradation
In short: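 Jurkat cells treated 4 h at 37 °C with compound at 0.001-1 μM final. RIPA lysates quantified by BCA, then MerTK probed by Western blot against actin loading control with IR-dye secondaries and Odyssey imaging.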

`O=C1CC[C@H](n2c3ccc(CCCOCCOCCN4CCN(Cc5ccc(-c6cn([C@H]7CC[C@H](O)CC7)c7nc(NCCC(F)(F)F)ncc67)cc5)CC4)cc3c3cccnc32)C(=O)N1` [I-125, 3-(6-[3-[2-(2-[4-[(4-[7-[trans-4-hydroxycyclohexyl]-2-[(3,3,3-trifluoropropyl)amino]-7H-pyrrolo[2,3-d]pyrimidin-5-yl]phenyl)methyl]piperazin-1-yl]ethoxy)ethoxy]propyl]-9H-pyrido[2,3-b]indol-9-y1)piperidine-2,6-dione] and `O=C1CC[C@H](n2c3ccc(NCCOCCOCCN4CCN(Cc5ccc(-c6cn([C@H]7CC[C@H](O)CC7)c7nc(NCCC(F)(F)F)ncc67)cc5)CC4)cc3c3cccnc32)C(=O)N1` [I-133, 3-[6-([2-[2-(2-[4-[(4-[7-[trans-4-hydroxycyclohexyl]-2-[(3,3,3-trifluoropropyl)amino]pyrrolo[2,3-d]pyrimidin-5-yl]phenyl)methyl]piperazin-1-yl]ethoxy)ethoxy]ethyl]amino)pyrido[2,3-b]indol-9-yl]piperidine-2,6-dione; formic acid] cannot be ordered by Dmax: > 50% for the first, > 50% for the second.

`C[C@@H](CC(F)(F)F)Nc1ncc2c(-c3ccc(CN4CCN(CCCOCCCc5ccc6c(c5)n(C)c(=O)n6C5CCC(=O)NC5=O)CC4)cc3)cn([C@H]3CC[C@H](O)CC3)c2n1` (stereo partly drawn) [I-110, 3-[3-methyl-2-oxo-5-[3-(3-[4-[(4-[7-[(1r,4r)-4-hydroxycyclohexyl]-2-[[(2S)-4,4,4-trifluorobutan-2-yl]amino]-7H-pyrrolo[2,3-d]pyrimidin-5-yl]phenyl)methyl]piperazin-1-yl]propoxy)propyl]-2,3-dihydro-1H-1,3-benzodiazol-1-y1]piperidine-2,6-dione] and `C[C@H](CC(F)(F)F)Nc1ncc2c(-c3ccc(CN4CCN(CCCOCCCc5ccc6c(c5)n(C)c(=O)n6C5CCC(=O)NC5=O)CC4)cc3)cn([C@H]3CC[C@H](O)CC3)c2n1` (stereo partly drawn) [I-111] cannot be ordered by Dmax: > 50% for the first, > 50% for the second.

`C[C@H](c1ccc(-c2cn([C@H]3CC[C@H](O)CC3)c3nc(NCCC(F)(F)F)ncc23)cc1)N1CCN(CCCOCCCc2ccc3c(c2)n(C)c(=O)n3C2CCC(=O)NC2=O)CC1` (stereo partly drawn) [I-101] and `Cn1c(=O)n([C@H]2CCC(=O)NC2=O)c2ccc(CCCOCCCN3CCN(Cc4cccc(-c5cn([C@H]6CC[C@H](O)CC6)c6nc(NCCC(F)(F)F)ncc56)c4)CC3)cc21` [I-139, 3-[3-methyl-2-oxo-5-[3-(3-[4-[(3-[7-[trans-4-hydroxycyclohexyl]-2-[(3,3,3-trifluoropropyl)amino]pyrrolo[2,3-d]pyrimidin-5-yl]phenyl)methyl]piperazin-1-yl]propoxy)propy1]-1,3-benzodiazol-1-yl]piperidine-2,6-dione] cannot be ordered by Dmax: > 50% for the first, > 50% for the second.

`Cn1c(=O)n([C@H]2CCC(=O)NC2=O)c2ccc(CCCOCCOCCN3CCN(C[C@H]4CC[C@H](c5cn([C@H]6CC[C@H](O)CC6)c6nc(NCCC(F)(F)F)ncc65)CC4)CC3)cc21` [I-154, 3-[3-methyl-2-oxo-5-(3-[2-[2-(4-[[(1r,4r)-4-[7-[trans-4-hydroxycyclohexyl]-2-[(3,3,3-trifluoropropyl)amino]pyrrolo[2,3-d]pyrimidin-5-y1]cyclohexyl]methyl]piperazin-1-y1)ethoxy]ethoxy]propyl)-1,3-benzodiazol-1-yl]piperidine-2,6-dione] and `CCCCNc1ncc2c(-c3ccc(CN4CCN(CCOCCOCCOCCCc5ccc6c(c5)n(C)c(=O)n6[C@H]5CCC(=O)NC5=O)CC4)cc3)nn([C@H]3CC[C@H](O)CC3)c2n1` [I-49, 3-(5-[3-[2-(2-[2-[4-([4-[6-(butylamino)-1-[trans-4-hydroxycyclohexy1]-1H-pyrazolo[3,4-d]pyrimidin-3-yl]phenyl]methyl)piperazin-1-yl]ethoxy]ethoxy)ethoxy]propyl]-3-methyl-2-oxo-2,3-dihydro-1H-1,3-benzodiazol-1-y1)piperidine-2,6-dione; formic acid] cannot be ordered by Dmax: > 50% for the first, > 50% for the second.

Compared with `Cc1ncsc1-c1ccc(CNC(=O)[C@@H]2C[C@@H](O)CN2C(=O)[C@@H](NC(=O)CCCCCN2CCN(Cc3ccc(-c4cn([C@H]5CC[C@H](O)CC5)c5nc(NCCC(F)(F)F)ncc45)cc3)CC2)C(C)(C)C)cc1` [I-161, (2S,4R)-1-[(2S)-3,3-dimethyl-2-(6-[4-[(4-[7-[trans-4-hydroxycyclohexyl]-2-[(3,3,3-trifluoropropyl)amino]pyrrolo[2,3-d]pyrimidin-5-yl]phenyl)methyl]piperazin-1-yl]hexanamido)butanoyl]-4-hydroxy-N-[[4-(4-methyl-1,3-thiazol-5-yl)phenyl]methyl]pyrrolidine-2-carboxamide], `Cc1ncsc1-c1ccc(CNC(=O)[C@@H]2C[C@@H](O)CN2C(=O)[C@@H](NC(=O)COCCOCCOCCOCCN2CCN(Cc3ccc(-c4cn([C@H]5CC[C@H](O)CC5)c5nc(NCCC(F)(F)F)ncc45)cc3)CC2)C(C)(C)C)cc1` [I-173, (2S,4R)-1-[(2S)-3,3-dimethyl-2-(14-[4-[(4-[7-[(1r,4r)-4-hydroxycyclohexyl]-2-[(3,3,3-trifluoropropyl)amino]pyrrolo[2,3-d]pyrimidin-5-yl]phenyl)methyl]piperazin-1-yl]-3,6,9,12-tetraoxatetradecanamido)butanoyl]-4-hydroxy-N-[[4-(4-methyl-1,3-thiazol-5-yl)phenyl]methyl]pyrrolidine-2-carboxamide] is higher in Dmax: < 20% for the first, 20 to 50% for the second.

`CCC[C@H](C)Nc1ncc2c(-c3ccc(CN4CCN(C5CC(OCCc6ccc7c(c6)n(C)c(=O)n7C6CCC(=O)NC6=O)C5)CC4)cc3)cn([C@H]3CC[C@@](C)(O)CC3)c2n1` (stereo partly drawn) [I-187, 3-[3-methyl-2-oxo-5-[2-(3-[4-[(4-[2-[(2S)-pentan-2-ylamino]-7-[cis-4-hydroxy-4-methylcyclohexyl]pyrrolo[2,3-d]pyrimidin-5-yl]phenyl)methyl]piperazin-1-yl]cyclobutoxy)ethyl]-1,3-benzodiazol-1-yl]piperidine-2,6-dione; formic acid] and `Cn1c(=O)n(C2CCC(=O)NC2=O)c2ccc(C#CCOCCN3CCCC(N4CCN(Cc5ccc(-c6cn([C@H]7CC[C@H](O)CC7)c7nc(NCCC(F)(F)F)ncc67)cc5)CC4)C3)cc21` (stereo partly drawn) [I-87, 3-(3-methyl-2-oxo-5-[3-[2-(3-[4-[(4-[7-[trans-4-hydroxycyclohexyl]-2-[(3,3,3-trifluoropropyl)amino]-7H-pyrrolo[2,3-d]pyrimidin-5-yl]phenyl)methyl]piperazin-1-yl]piperidin-1-yl)ethoxy]prop-1-yn-1-y1]-2,3-dihydro-1H-1,3-benzodiazol-1-y1)piperidine-2,6-dione; formic acid] cannot be ordered by Dmax: > 50% for the first, > 50% for the second.

Going from `C[C@H](CC(F)(F)F)Nc1ncc2c(-c3ccc(CN4CCN(CCCOCCCc5ccc6c(c5)n(C)c(=O)n6C5CCC(=O)N(C)C5=O)CC4)cc3)cn([C@H]3CC[C@H](O)CC3)c2n1` (stereo partly drawn) [I-224, 1-methyl-3-[3-methyl-2-oxo-5-[3-(3-[4-[(4-[7-[trans-4-hydroxycyclohexy1]-2-[[(2R)-4,4,4-trifluorobutan-2-yl]amino]pyrrolo[2,3-d]pyrimidin-5-yl]phenyl)methyl]piperazin-1-yl]propoxy)propyl]-1,3-benzodiazol-1-yl]piperidine-2,6-dione] to `CCCCNc1ncc2c(C3=CCN(CCOCCOCCOCCOCCCc4ccc5c(c4)n(C)c(=O)n5[C@H]4CCC(=O)NC4=O)CC3)cn([C@H]3CC[C@H](O)CC3)c2n1` [I-96, 3-[5-(1-[4-[2-(butylamino)-7-[trans-4-hydroxycyclohexyl]-7H-pyrrolo[2,3-d]pyrimidin-5-y1]-1,2,3,6-tetrahydropyridin-1-y1]-3,6,9,12-tetraoxapentadecan-15-yl)-3-methyl-2-oxo-2,3-dihydro-1H-1,3-benzodiazol-1-yl]piperidine-2,6-dione; formic acid], the Dmax rises from < 20% to > 50%.

`CN1CCN(Cc2ccc(-c3ccc(CO[C@H]4CCC[C@@H]4NC(=O)c4cc(-c5cnn(CCOCCOCCCc6cccc7c6n(C)c(=O)n7C6CCC(=O)NC6=O)c5)cnc4N)cc3)cc2)CC1` (stereo partly drawn) [I-184, 2-Amino-5-[1-[2-(2-[3-[1-(2,6-dioxopiperidin-3-yl)-3-methyl-2-oxo-1,3-benzodiazol-4-yl]propoxy]ethoxy)ethyl]pyrazol-4-yl]-N-[(1S,2S)-2-([4-[(4-methylpiperazin-1-yl)methyl]-[1,1-biphenyl]-4-yl]methoxy)cyclopentyl]pyridine-3-carboxamide] was tested, and the Dmax was 20 to 50%.
